Measured values published in PubChem BioAssay AID977606 (Broad Institute, 2014).
“And” between values parts separate entries of the source, which are not always exact repeats. Equal values may be shown once. The source made the active and inactive calls. No rule for the calls is given here.

system: INS-1E Gaussia luciferase insulin secretion, no glucose, luminescence; assay: glucose-independent GLuc insulin release activation – cell-based, INS-1E, Gaussia luciferase, luminescence, cherry-pick, counter-screen for glucose-dependent insulin secretion activators, dose response (AID 977606)

Row | SMILES | AC40
1 | COc1ccc(C(C)NCCC(c2ccc(OC(C)C)cc2)c2ccccc2OC)cc1 (stereo not given) | 4.99 µM
2 | Cc1ccc(-c2ccc(C3[C@@H]4CN(Cc5cccc(F)c5)C[C@H]3N4)cc2)cc1 (stereo not given in full) | 2.14 µM
3 | C[C@@H]1CN([C@@H](C)CO)C(=O)c2cc(Br)cnc2O[C@H]1CN(C)C(=O)C1CC1 | > 35 µM (inactive)
4 | COc1ccc2c(c1)CCc1c(C(=O)Nc3cc(C)n(Cc4ccc(Cl)cc4)n3)noc1-2 | 1.86 µM
5 | O=C(Nc1ccc2ccccc2c1)c1cccc2ccccc12 | 3.25 µM
6 | Oc1ccccc1-c1cc(C(F)(F)C(F)F)nc(-c2ccccc2)n1 | 3.86 µM
7 | COc1ccc(-c2ccc(-c3noc(-c4ccco4)n3)c(OC)n2)cc1 | 5.41 µM
8 | Cc1ccc(C)c(OCC(=O)N/N=C/c2c(C)nn(-c3ccccc3)c2Cl)c1C | 1.63 µM
9 | COC(=O)C1=C(C)N(Cc2cccc(C(F)(F)F)c2)C(=NCc2ccc(C(F)(F)F)cc2)NC1c1ccccc1 (stereo not given) | 8.93 µM
10 | Cc1ccc(F)cc1-c1nc(NC(C)C)nc2cc(-c3ccccc3)sc12 | 13.6 µM
11 | CC(C)(C)c1ccc(OCC(=O)Nc2ccc(-c3nc4cccnc4o3)cc2)cc1 | 7.74 µM
12 | COc1ccc(CC2c3cc(OC)c(OC)cc3CCN2C)cc1O (stereo not given) | 14.7 µM
13 | COC(=O)c1ccc2c(c1)NC(=O)C(N(CC(C)C)CC(C)C)S2 (stereo not given) | 2.51 µM
14 | CCc1ccc(OCC(=O)NC(=S)Nc2ccc(F)cc2)c(Br)c1 | 6.76 µM
15 | COc1ccc(NC(=O)Cc2c(SC)c3ccccc3n2Cc2ccccc2)cc1 | 12.5 µM
16 | CC(=O)Nc1ccc(Nc2nc(-c3c(C)nc4ccccn34)cs2)cc1 | 4.46 µM
17 | COc1ccccc1C(=O)Nc1c2c(nn1-c1cccc(C)c1C)CS(=O)(=O)C2 | 13 µM
18 | Cc1cc(C(F)F)n2ncc(C(=O)NCc3ccc(F)cc3)c2n1 | > 35 µM (inactive)
19 | OC[C@@H]1[C@@H](c2ccc(C#CC3CCCC3)cc2)[C@@H]2CN(CCC(F)(F)F)CCCCN12 | 8.18 µM
20 | Fc1cccc(CN2C[C@@H]3N[C@H](C2)[C@@H]3c2ccc(-c3cccc(F)c3)cc2)c1 | 4.89 µM
21 | CCSc1ccc2nnc(-c3ccc(F)cc3)n2n1 | 17.9 µM
22 | COc1ccc(S(=O)(=O)Nc2ccccc2OC)cc1N=Nc1c(O)[nH]c(=S)[nH]c1=O | 12.6 µM

Row | SMILES | AC40
23 | CCCCc1c(-c2ccccc2OC)ncn1C(C)c1ccccc1 (stereo not given) | 12.5 µM
24 | O=c1c2cc(F)ccc2sn1-c1ccccc1Cl | 1.35 µM
25 | O=C(Nc1ccccc1N1CCOCC1)C1=NN(c2ccccc2)C(=O)CC1 | 24.3 µM
26 | CN(C)CCOc1ccc(-c2c(-c3ccccc3)sc3ccccc23)cc1 | 1.97 µM
27 | Cc1nn(-c2ccccc2)c2nc(C(F)F)cc(C(F)F)c12 | 30.4 µM
28 | CCNC(=O)NC(=O)C(C)OC(=O)c1oc2ccccc2c1CSC1CCCCC1 (stereo not given) | 2.22 µM
29 | CCC(=O)Nc1sc(Cc2ccc3c(c2)OCO3)c(C)c1C(N)=O | 7.01 µM
30 | CC(C)(C(=O)N1CCC1(C)C(=O)NS(=O)(=O)c1cccc(Cl)c1)c1ccccc1 (stereo not given) | 3.65 µM
31 | COc1ccc(-n2sc3ccccc3c2=O)cc1 | 0.759 µM
32 | NC(CCc1ccccc1)c1csc(Nc2ccc(C(F)(F)F)cn2)n1 (stereo not given) | 6.01 µM
33 | CN(C)CCNC(=O)c1cc2c(s1)-c1ccc(Cl)cc1SC2 | 4.87 µM
34 | Cc1cc(C)nc(Nc2n[nH]c(COc3ccc4ccccc4c3)n2)n1 | 6.18 µM
35 | Clc1ccc(-c2ccnc(Oc3cc(Cl)ccc3Cl)n2)cc1 | 6.7 µM
36 | CC1CN(Cc2ccccc2)C(=S)NC1=O (stereo not given) | 28.6 µM
37 | O=C(c1cccs1)c1coc2ccc(O)c(CN3CCOCC3)c12 | > 35 µM (inactive)
38 | NC(N)=N/N=C/c1ccc(OCc2ccccc2Cl)cc1 | 12.3 µM
39 | O=C(Nc1cccc(Cl)c1)Nc1nnc(CSCCOc2ccc(Cl)cc2)s1 | 3.41 µM
40 | OC(c1ccccc1)(c1ccccc1)C1CCN(CCCOc2ccc3c(c2)CCCC3)CC1 | 3.37 µM
41 | Cc1cc(OCC(O)CNC(C)c2ccccc2)ccc1C(C)C (stereo not given) | 9.73 µM
42 | Cc1nnn(-c2nonc2N)c1C(=O)N/N=C/c1cccc2ccccc12 | 6.5 µM
43 | CC(=O)C1=C(S(=O)(=O)c2ccc(C)cc2)CS(=O)(=O)C1 | 0.613 µM
44 | CCn1c(O)c(/C=N/N=C/c2ccc(OC)cc2)c2cc(C3=NNC(=O)CC3)ccc21 | 4.2 µM

Row | SMILES | AC40
45 | CCOC(=O)c1cnc2c(Cl)c(Cl)ccc2c1NCCN1CCOCC1 | 26.5 µM
46 | CCOC(=O)c1ccccc1NC(=O)c1n[nH]c(=O)c2ccccc12 | 3.05 µM
47 | COc1ccc(C#Cc2ccc([C@@H]3[C@H](CO)N4CCCCN(Cc5ccccc5F)C[C@@H]34)cc2)cc1 | 9.33 µM
48 | Fc1cccc(CN2C[C@@H]3N[C@H](C2)C3c2ccc(/C=C/c3ccccc3)cc2)c1 (stereo not given in full) | 6.41 µM
49 | CCCc1nc2ccccc2c(=O)n1CC(=O)c1ccc(OC)cc1 | 5.72 µM
50 | Cc1ccc(OCC(=O)NC(=S)Nc2cccc(NC(=O)c3ccccc3)c2)cc1 | 8.85 µM
51 | NC1=NC[C@H](CC2CCCCC2)N1CCc1cc(C(F)(F)F)cc(C(F)(F)F)c1 | 9.8 µM
52 | CN1CCN(C2Cc3ccccc3Sc3cc(C(F)(F)F)ccc32)CC1 (stereo not given) | 7.2 µM
53 | CCCCCCC1CCC(C(=O)Nn2c(C)nc3ccccc3c2=O)CC1 (stereo not given) | 14.8 µM
54 | N#Cc1cccc(Oc2ccc(-c3cnc4ccccc4n3)cc2)c1C#N | 9.37 µM
55 | COC(=O)c1sccc1NC(=O)COc1ccc(Cl)cc1Cl | 6.02 µM
56 | NS(=O)(=O)c1ccc(N=Cc2c(O)n(C3CCCCC3)c(=O)n(C3CCCCC3)c2=O)cc1 | 15.1 µM
57 | CC1(C(=O)NCc2cccc3ccccc23)CCN1Cc1ccc(OC(F)(F)F)cc1 (stereo not given) | 9.49 µM
58 | CCOC(=O)Nc1cccc(OCC(=O)Nc2ccc3c(c2)CCC3)c1 | 8.25 µM
59 | CCOC(=O)c1oc2ccccc2c1NC(=O)c1cccs1 | 12.6 µM
60 | COc1ccc(S(=O)(=O)N2CCc3ccccc32)cc1C(=O)Nc1ccc(C(N)=O)cc1 | 6.44 µM
61 | Cc1cccc(S(=O)(=O)N2CCCCN3[C@@H](CO)[C@@H](c4ccc(C#CC(C)C)cc4)[C@@H]3C2)c1 | 7.76 µM
62 | CS(=O)(=O)N1CCN(c2ccc(NC(=O)c3ccc(-c4ccc(Cl)cc4)o3)cc2)CC1 | 9.12 µM
63 | CC(=O)Oc1ccc(Cl)cc1/C=C/c1ccc2ccccc2n1 | 9.46 µM
64 | CC1CCC(C(C)C)C(OCC(O)CNC(C)c2ccccc2)C1 (stereo not given) | 11.8 µM
65 | CN(C)CCNc1ncnc2oc(-c3ccccc3)c(-c3ccccc3)c12 | 26.4 µM
66 | CN(C)c1ncnc2sc(-c3ccccc3)cc12 | 30.3 µM

Row | SMILES | AC40
67 | Cc1ccc(C)c(OCC(=O)Nc2nonc2NC(=O)COc2cc(C)ccc2C)c1 | 3.38 µM
68 | COc1ccc(-c2ccc(C3[C@@H]4CN(Cc5cccc(OC)c5)C[C@H]3N4)cc2)cc1 (stereo not given in full) | 6.42 µM
69 | Cc1cc(C)cc(NC(=O)Cc2ccc(-n3cccc3)cc2)c1 | 6.9 µM
70 | CCOC(=O)c1[nH]c2cc(OC)c(OC)cc2c1NC(=O)c1ccc2c(c1)OCO2 | 15.6 µM
71 | Cc1cc2c(cc1C)CSC(c1c(O)ccc3ccccc13)SC2 | 17.9 µM
72 | NC(=O)c1ccc2nc(-c3ccccc3)c(-c3ccccc3)nc2c1 | 19.8 µM
73 | COc1ccc2nc3ccccc3nc2c1NC(=O)c1ccc(Cl)cc1Cl | 5.1 µM
74 | CC(=O)Oc1ccccc1C(=O)OCCN=C1NS(=O)(=O)c2ccccc21 | > 35 µM (inactive)
75 | O=C1N/C(=N\N=C\c2cccs2)SC1Cc1cccc(Cl)c1 (stereo not given) | 5.93 µM
76 | Fc1ccc(/C=N/c2c(-c3ccc(F)cc3)nc3n2CCS3)cc1 | 6.12 µM
77 | Cc1ccccc1S(=O)(=O)N1CC(=O)N2[C@@H](CO)[C@H](c3ccc(C#CCC4CCCC4)cc3)[C@@H]2C1 | 22.6 µM
78 | Cc1ccc(-c2ccc(C3[C@@H]4CN(C(=O)Nc5ccc(C(F)(F)F)cc5)C[C@H]3N4)cc2)cc1 (stereo not given in full) | 1.17 µM and 2.2 µM
79 | O=C(Nc1ccc2c(c1)OCO2)N1C[C@@H]2N[C@H](C1)C2c1ccc(C=Cc2ccccc2)cc1 (stereo not given in full) | 11.7 µM
80 | CC(C)(C)c1nc2ccc(Cl)cn2c1CC1CCCCC1 | 13.2 µM
81 | CCCCc1nc(NCCN)c(C#N)c2c1CSC(C)(C)C2 | 11.6 µM
82 | Cc1nn(Cc2ccc(Cl)cc2Cl)c(Cl)c1C(=O)Nc1ccc(OC(F)F)cc1 | 5.64 µM
83 | CN(C)S(=O)(=O)c1cccc(-n2sc3ccccc3c2=O)c1 | 2.58 µM
84 | C/C=C/c1ccc(C2[C@@H]3CN(C(=O)Nc4ccc(C(F)(F)F)cc4)C[C@H]2N3)cc1 (stereo not given in full) | 5.83 µM
85 | CCOc1ccc(-c2nnn(CC(=O)Nc3ccccc3OC)n2)cc1OCC | 7.27 µM
86 | CC(=O)Nc1sc(N/N=C\c2cccc(Cl)c2)nc1-c1cccs1 | 4.69 µM
87 | N#Cc1cccc(-c2ccc(C3[C@H]4CNC[C@@H]3N4Cc3cc(-c4ccccc4)on3)cc2)c1 (stereo not given in full) | 9.78 µM
88 | NS(=O)(=O)c1ccc(CCNc2nc3c(-c4cccc(F)c4)nnn3c3ccccc23)cc1 | 2.03 µM

Row | SMILES | AC40
89 | COc1cc2sc3ccc(C#Cc4ccc(N)cc4)cc3c(=O)c2cc1OC | 19 µM
90 | O=C(Cn1cnc2c(OCc3ccccc3)ncnc21)NCc1ccccn1 | 31.1 µM
91 | CN(C)C(=O)COC(=O)c1cccnc1Nc1ccccc1F | 29.5 µM
92 | COc1cc2ccccc2cc1C(=O)Nc1ccc2oc(=O)ccc2c1 | 9.12 µM
93 | CC(C)C[C@H](NC(=O)c1nc[nH]c1C(=O)NC1CCN(C(=O)OC(C)(C)C)CC1)C(=O)OC(C)(C)C | 26.4 µM
94 | CCC(C)Sc1cccc(-c2nc3cnccn3c2NC2CCCCC2)c1 (stereo not given) | 4.26 µM
95 | c1ccc(Cn2nnc3c(N4CCc5ccccc54)ncnc32)cc1 | 6.35 µM
96 | CCOC(=O)c1c(-n2cnnn2)sc2c1CCCC2 | > 35 µM (inactive)
97 | COc1cc(OC)c2c(-c3ccccc3)cc(C3CCCCC3)nc2c1 | 12.1 µM
98 | CC(C)CSc1nc2c(c(=O)[nH]c(=O)n2C)n1CCc1ccccc1 | 9.29 µM
99 | C=CCn1c(=NC(=O)c2cc(Cl)sc2Cl)sc2cc(S(N)(=O)=O)ccc21 | 4.47 µM
100 | COc1ccc(-c2cccc(C(=O)Nc3ccc(C)cc3)c2)cc1 | 13.6 µM
101 | CN(C)Cc1ccccc1Sc1ccc2c(c1)CCCC2 | 13 µM
102 | CCCCc1c(-c2ccccc2OC)ncn1CCc1ccccc1 | 9.48 µM
103 | COCc1[nH]nc2c1C(c1ccc(C)cc1)NC2=O (stereo not given) | 28.5 µM
104 | CC(C)CC#Cc1ccc([C@H]2[C@H]3CN(C(=O)c4cnccn4)CC(=O)N3[C@H]2CO)cc1 | > 35 µM (inactive)
105 | CS(=O)(=O)N(Cc1ccc(Cl)cc1)c1ccc(C(=O)NCCC2=CCCCC2)cc1 | 6.78 µM
106 | Cc1ccc(-n2nc3ccc(NC(=O)c4ccco4)cc3n2)cc1 | 8.86 µM
107 | O=C(CCN1CCOCC1)c1ccccc1 | 10.3 µM
108 | Clc1ccc(/C=N/NC2=Nc3cccc4cccc2c34)cc1 | 2.88 µM
109 | COc1ccc(CCNC(=O)C(=O)NN=C2CCCCCCC2)cc1OC | 21.7 µM
110 | CN(C)c1nc(=NCc2cccs2)ss1 | 1.19 µM
